Each structure is given as a SMILES string.

Results on two compounds are retold here after ChEMBL document CHEMBL5528077, “Structure-Based Discovery of High-Affinity Small Molecule Ligands and Development of Tool Probes to Study the Role of Chitinase-3-Like Protein 1” (J Med Chem, 2024).

Series [1] in a line: in vivo. The note with it: BALB/c, mouse, iv, 3 mg/kg.
A short description of series [2]: in vivo. The note with it: BALB/c, mouse, iv, 3 mg/kg. This is another data set of the same source.
Series [3] in a line: in vivo. The conditions noted are these: BALB/c, mouse, po, 10 mg/kg.

As for `Cc1ccnc(N2CCC(N3C[C@H](C)OC[C@@H]3Cc3ccc(Cl)cc3)CC2)c1`, the clearance – broadly, a measure of how efficiently the substance is removed, as volume per time – in series [1] was 58 mL/min/kg. The Vd (as a rule, a proportionality between amount in the body and measured concentration, not a real space) in series [2] was 2.5 L/kg.

As to `CC(C)CN1C[C@H](Cc2ccc(Cl)cc2)N(C2CCN(c3ccccn3)CC2)C[C@@H]1C`, the bioavailability (commonly dose-corrected exposure relative to a reference, in per cent) in series [3] was found to be 5.6%. In addition, in series [1], the clearance was 69 mL/min/kg. In series [2], this compound gave a Vd of 9.25 L/kg.
